This is an account of results in patent US20060276464A1, “Diarylsulfone sulfonamides and use thereof” (Wyeth, priority 2005, published 2006).

In test [1] the target is T1, SFRP-1 (Homo sapiens, UniProt Q8N474).
T1 sequence (Q8N474 32-314): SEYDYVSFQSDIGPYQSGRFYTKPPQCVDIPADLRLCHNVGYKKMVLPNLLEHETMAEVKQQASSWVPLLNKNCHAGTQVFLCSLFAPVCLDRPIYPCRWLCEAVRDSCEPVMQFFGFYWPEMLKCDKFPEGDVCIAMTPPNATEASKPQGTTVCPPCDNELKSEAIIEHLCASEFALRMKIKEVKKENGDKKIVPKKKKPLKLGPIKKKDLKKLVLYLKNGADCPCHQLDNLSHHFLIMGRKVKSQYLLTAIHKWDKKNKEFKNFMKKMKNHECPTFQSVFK
The experiment in a line: Fluorescence polarization binding assay (competitive displacement of a probe compound from SFRP-1).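 Also: test compound competes with a fluorescent probe held by SFRP-1, seen as a drop in probe anisotropy after incubation in darkness, with anisotropy as function of rising compound dose.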 The conditions noted are these: fluorescence anisotropy, 45 nM SFRP-1, 20 nM probe.

For test [2], the target named is T1, SFRP-1. The experiment in a line: Cell-based assay for in vitro measurement of SFRP-1/SARP2 antagonist activity (U2OS cells co-transfected with 16x TCF-tk-Luciferase reporter, Wnt and hSFRP-1). (Reporter assays use an easily measured gene product as a stand-in for the process of interest.)

By pIC50 is commonly meant −log10 of the IC50, conventionally taken in molar units. A lower pIC50 goes with a large IC50. One may read the pEC50 as the EC50 on a negative log10 scale, so that one unit is a factor of ten.

pEC50, pIC50: −log10 of the molar value.
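For pEC50 in this document: U2OS cells co-transfected with a TCF-tk luciferase reporter, a Wnt vector, hSFRP-1 or empty vector and CMV-βgal, luciferase luminescence read in cell lysates alongside βgal activity.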

On SFRP-1 [1], `O=S(=O)(NCc1ccc(N2CCOCC2)nc1)c1cc(S(=O)(=O)c2ccccc2)ccc1C(F)(F)F` [Example 1033, N-[(6-morpholin-4-ylpyridin-3-yl)methyl]-5-(phenylsulfonyl)-2-(trifluoromethyl)benzenesulfonamide] gave a negative-log IC50 (pIC50) of 6.30. The negative logarithm of the EC50 (pEC50) at SFRP-1 [2] was 5.82.
The corresponding values for `O=S(=O)(NC1CCNCC1)c1cc(S(=O)(=O)c2cccc(Br)c2)ccc1C(F)(F)F` [Example 1034, 5-[(3-bromophenyl)sulfonyl]-N-piperidin-4-yl-2-(trifluoromethyl)benzenesulfonamide] are 6.30 and 5.78.
Taken in the same sequence, the figures for `CN(CCNS(=O)(=O)c1cc(S(=O)(=O)c2ccccc2)ccc1C(F)(F)F)C(=O)c1ccc(CP(=O)(O)O)cc1` [Example 1036, [4-({methyl[2-({[5-(phenylsulfonyl)-2-(trifluoromethyl)phenyl]sulfonyl}amino)ethyl]amino}carbonyl)benzyl]phosphonic acid] were 6.10 and 5.12.
Regarding `COC(=O)c1ccc2c(c1)CC(NS(=O)(=O)c1cc(S(=O)(=O)c3ccccc3)ccc1C(F)(F)F)C2` (centres unmarked) [Example 1037, methyl 2-({[5-(phenylsulfonyl)-2-(trifluoromethyl)phenyl]sulfonyl}amino)indane-5-carboxylate], the pIC50 at SFRP-1 [1] was 7.10. For the same compound, the negative-log EC50 (pEC50) at SFRP-1 [2] is 5.42.
Compound `C[C@H](C(N)=O)N1CCC(NS(=O)(=O)c2cc(S(=O)(=O)c3ccccc3)ccc2C(F)(F)F)CC1` [Example 1038, (2R)-2-[4-({[5-(phenylsulfonyl)-2-(trifluoromethyl)phenyl]sulfonyl}amino)piperidin-1-yl]propanamide] gave a pIC50 on SFRP-1 [1] of 7.00. In addition, the pEC50 on SFRP-1 [2] is 6.48.
Taken in the same sequence, the figures for `C[C@@H](C(N)=O)N1CCC(NS(=O)(=O)c2cc(S(=O)(=O)c3ccccc3)ccc2C(F)(F)F)CC1` [Example 1039, (2S)-2-[4-({[5-(phenylsulfonyl)-2-(trifluoromethyl)phenyl]sulfonyl}amino)piperidin-1-yl]propanamide] were 6.40 and 6.61.
In turn, `O=C(c1ccc(=O)[nH]c1)N1CCC(NS(=O)(=O)c2cc(S(=O)(=O)c3ccccc3)ccc2C(F)(F)F)CC1` [Example 1040, N-{1-[(6-oxo-1,6-dihydropyridin-3-yl)carbonyl]piperidin-4-yl}-5-(phenylsulfonyl)-2-(trifluoromethyl)benzenesulfonamide] had a negative-log IC50 (pIC50) on SFRP-1 [1] of 6.85. On SFRP-1 [2], this compound gave a pEC50 of 6.66.
As to `COc1ccc2c(c1)C(O)C(NS(=O)(=O)c1cc(S(=O)(=O)c3ccccc3)ccc1C(F)(F)F)C2` (centres unmarked) [Example 1044, N-(1-hydroxy-6-methoxy-2,3-dihydro-1H-inden-2-yl)-5-(phenylsulfonyl)-2-(trifluoromethyl)benzenesulfonamide], at SFRP-1 [1], the pIC50 is 6.30. On SFRP-1 [2], this compound gave a negative logarithm of the EC50 (pEC50) of 5.87.
In turn, `CC(C)(C)OC(=O)N1CCC(NC(=O)NCCNS(=O)(=O)c2cc(S(=O)(=O)c3ccccc3)ccc2C(F)(F)F)CC1` [Example 1046, tert-butyl 4-[({[2-({[5-(phenylsulfonyl)-2-(trifluoromethyl)phenyl]sulfonyl}amino)ethyl]amino}carbonyl)amino]piperidine-1-carboxylate] had a pIC50 at SFRP-1 [1] of 6.10. On SFRP-1 [2], this compound gave a negative logarithm of the EC50 (pEC50) of 5.46.
In turn, `CSc1ccc(C(=O)N2CCC(NS(=O)(=O)c3cc(S(=O)(=O)c4ccccc4)ccc3C(F)(F)F)CC2)cc1` [Example 1050, N-{1-[4-(methylthio)benzoyl]piperidin-4-yl}-5-(phenylsulfonyl)-2-(trifluoromethyl)benzenesulfonamide] gave a negative logarithm of the IC50 (pIC50) at SFRP-1 [1] of 6.77. The pEC50 on SFRP-1 [2] was 6.18.
With `C[S+]([O-])c1ccc(C(=O)N2CCC(NS(=O)(=O)c3cc(S(=O)(=O)c4ccccc4)ccc3C(F)(F)F)CC2)cc1` (centres unmarked) [Example 1052, N-{1-[4-(Methylsulfinyl)benzoyl]piperidin-4-yl}-5-(phenylsulfonyl)-2-(trifluoromethyl)benzenesulfonamide], the pIC50 on SFRP-1 [1] was 7.05. Also, on SFRP-1 [2], the negative-log EC50 (pEC50) is 6.81.
Taken in the same sequence, the figures for `CSCCC(=O)N1CCC(NS(=O)(=O)c2cc(S(=O)(=O)c3ccccc3)ccc2C(F)(F)F)CC1` [Example 1053, N-{1-[3-(methylthio)propanoyl]piperidin-4-yl}-5-(phenylsulfonyl)-2-(trifluoromethyl)benzenesulfonamide] were 7.40 and 6.72.
As to `C[S+]([O-])CCC(=O)N1CCC(NS(=O)(=O)c2cc(S(=O)(=O)c3ccccc3)ccc2C(F)(F)F)CC1` (centres unmarked) [Example 1054, N-{1-[3-(methylsulfinyl)propanoyl]piperidin-4-yl}-5-(phenylsulfonyl)-2-(trifluoromethyl)benzenesulfonamide], the negative-log IC50 (pIC50) on SFRP-1 [1] was 7.40. This compound gave a negative logarithm of the EC50 (pEC50) on SFRP-1 [2] of 6.14.
On SFRP-1 [1], `CC(C)(C)OC(=O)N1CSC[C@H]1C(=O)N1CCC(NS(=O)(=O)c2cc(S(=O)(=O)c3ccccc3)ccc2C(F)(F)F)CC1` [Example 1055, tert-butyl (4R)-4-{[4-({[5-(phenylsulfonyl)-2-(trifluoromethyl)phenyl]sulfonyl}amino)piperidin-1-yl]carbonyl}-1,3-thiazolidine-3-carboxylate] gave a negative logarithm of the IC50 (pIC50) of 7.30. This compound also had a negative-log EC50 (pEC50) at SFRP-1 [2] of 7.02.
Taken in the same sequence, the figures for `O=C([C@@H]1CSCN1)N1CCC(NS(=O)(=O)c2cc(S(=O)(=O)c3ccccc3)ccc2C(F)(F)F)CC1` [Example 1056, 5-(phenylsulfonyl)-N-{1-[(4R)-1,3-thiazolidin-4-ylcarbonyl]piperidin-4-yl}-2-(trifluoromethyl)benzenesulfonamide] were 7.40 and 6.53.
Compound `CC(C)(C)OC(=O)N1C[S+]([O-])C[C@H]1C(=O)N1CCC(NS(=O)(=O)c2cc(S(=O)(=O)c3ccccc3)ccc2C(F)(F)F)CC1` (stereo partly drawn) [Example 1061, tert-butyl (4R)-4-{[4-({[5-(phenylsulfonyl)-2-(trifluoromethyl)phenyl]sulfonyl}amino)piperidin-1-yl]carbonyl}-1,3-thiazolidine-3-carboxylate 1-oxide] gave a pIC50 at SFRP-1 [1] of 7.70. At SFRP-1 [2], the negative-log EC50 (pEC50) is 7.11.
As to `NC(=O)COc1ccc2c(c1)CC(NS(=O)(=O)c1cc(S(=O)(=O)c3ccccc3)ccc1C(F)(F)F)C2` (centres unmarked) [Example 1062, 2-{[2-({[5-(phenylsulfonyl)-2-(trifluoromethyl)phenyl]sulfonyl}amino)-2,3-dihydro-1H-inden-5-yl]oxy}acetamide], at SFRP-1 [1], the pIC50 was 8.00. The same compound gave a pEC50 on SFRP-1 [2] of 7.47.
In the case of `COC(=O)CN1CCC(NS(=O)(=O)c2cc(S(=O)(=O)c3ccccc3)ccc2C(F)(F)F)CC1` [Example 1063, methyl [4-({[5-(phenylsulfonyl)-2-(trifluoromethyl)phenyl]sulfonyl)amino)piperidin-1-yl]acetate], the negative-log IC50 (pIC50) on SFRP-1 [1] was 6.85. At SFRP-1 [2], this compound had a pEC50 of 6.34.
Turning to `CC(=O)N1CC[C@@H](C(=O)N2CCC(NS(=O)(=O)c3cc(S(=O)(=O)c4ccccc4)ccc3C(F)(F)F)CC2)C1` [Example 1064, N-(1-{[(3R)-1-acetylpyrrolidin-3-yl]carbonyl}piperidin-4-yl)-5-(phenylsulfonyl)-2-(trifluoromethyl)benzenesulfonamide], at SFRP-1 [1], the negative logarithm of the IC50 (pIC50) was 7.22. Moreover, the negative-log EC50 (pEC50) on SFRP-1 [2] was 6.71.
At SFRP-1 [1], `CC(=O)N1CC[C@H](C(=O)N2CCC(NS(=O)(=O)c3cc(S(=O)(=O)c4ccccc4)ccc3C(F)(F)F)CC2)C1` [Example 1065, N-(1-{[(3S)-1-acetylpyrrolidin-3-yl]carbonyl}piperidin-4-yl)-5-(phenylsulfonyl)-2-(trifluoromethyl)benzenesulfonamide] had a pIC50 of 7.30. Further, the pEC50 at SFRP-1 [2] is 6.78.
Taken in the same sequence, the figures for `CC(C)(C)OC(=O)N1CCC(NS(=O)(=O)c2cc(S(=O)(=O)c3ccc(C(=O)O)cc3)ccc2C(F)(F)F)CC1` [Example 1066, 4-{[3-({[1-(tert-butoxycarbonyl)piperidin-4-yl]amino}sulfonyl)-4-(trifluoromethyl)phenyl]sulfonyl}benzoic acid] were 6.62 and 6.21.
The corresponding values for `CS(=O)(=O)N1CCC[C@H]1C(=O)N1CCC(NS(=O)(=O)c2cc(S(=O)(=O)c3ccccc3)ccc2C(F)(F)F)CC1` [Example 1075, N-{1-[1-(methylsulfonyl)-L-prolyl]piperidin-4-yl}-5-(phenylsulfonyl)-2-(trifluoromethyl)benzenesulfonamide] are 7.52 and 6.94.
The compound `O=C([C@@H]1CCCN1C(=O)c1ccc(Cl)nc1)N1CCC(NS(=O)(=O)c2cc(S(=O)(=O)c3ccccc3)ccc2C(F)(F)F)CC1` [Example 1079, N-(1-{1-[(6-chloropyridin-3-yl)carbonyl]-L-prolyl}piperidin-4-yl)-5-(phenylsulfonyl)-2-(trifluoromethyl)benzenesulfonamide] had a pIC50 at SFRP-1 [1] of 7.40. In addition, at SFRP-1 [2], the pEC50 was 6.48.
Take `O=C(O)c1ccc(S(=O)(=O)N2CCC[C@H]2C(=O)N2CCC(NS(=O)(=O)c3cc(S(=O)(=O)c4ccccc4)ccc3C(F)(F)F)CC2)cc1` [Example 1080, 4-[((2S)-2-{[4-({[5-(phenylsulfonyl)-2-(trifluoromethyl)phenyl]sulfonyl}amino)piperidin-1-yl]carbonyl}pyrrolidin-1-yl)sulfonyl]benzoic acid]: at SFRP-1 [1], the pIC50 was 7.52. On SFRP-1 [2], this compound gave a negative logarithm of the EC50 (pEC50) of 6.41.
On to `O=C(O)c1ccc2c(c1)CC(NS(=O)(=O)c1cc(S(=O)(=O)c3ccccc3)ccc1C(F)(F)F)C2` (centres unmarked) [Example 1082, 2-({[5-(phenylsulfonyl)-2-(trifluoromethyl)phenyl]sulfonyl}amino)indane-5-carboxylic acid], for which the pIC50 on SFRP-1 [1] is 7.80. For the same compound, at SFRP-1 [2], the negative-log EC50 (pEC50) is 6.54.
